Measurements published in US20230391817A1, “5ALPHA-HYDROXY-6BETA-[2-(1-H-IMIDAZOL-4-YL)-ETHYLAMINO]-CHOLESTAN-3BETA-OL ANALOGUES AND PHARMACEUTICAL COMPOSITIONS COMPRISING SAME FOR USE IN THE TREATMENT OF CANCER” (priority 2020, published 2023).
Like-named read-outs stand apart in the source and are kept apart here.

Key:
[1] = Oral pharmacokinetic study in rat, LC/MS assay in plasma (Examples 21-24); format: in vivo; details: 50 mg/kg
Method: The following study is an LC/MS assay in plasma of the various molecules over 3 days (11 measurement points in the end). The graphs are always presented in comparison with DX101 which is the reference.
Plasma sampling at 0 (without injection), 5, 10, 15, 30 min, 1 h, 4 h, 8 h, 24 h, 48 h, 72 h (11 points)

[2] = system: murine 4T1 mammary tumor cells; assay: Cell viability of 4T1 cells, LDH; format: cell-based; details: Mus musculus, 4T1, LDH, 48 h
Method: (§1) Cell viability tests were performed on murine 4T1 mammary tumor cells characterized as triple negative (HER2-, ER-, PR-).
(§2) For this experiment, a cell culture medium was prepared. The culture medium consisted of Dulbecco's Modified Eagle Medium (DMEM, sold by Westburg as LO BE12-604F), comprising 4.5 g/L glucose with L-glutamine, to which 10% fetal calf serum (FCS) and 50 U/ml penicillin/streptomycin are added. The 4T1 cells were introduced into this culture medium.
(§3) 96-well plates were seeded with 2000 4T1 cells per well. After 72 hours (h) of culture under normal condition, i.e. in an incubator at 37° C. at […], the 4T1 cells were treated for 48 h with DX101, DX103, DX111, DX123, DX125, DX127 and DX129 at 100 nM, 1 μM, 2.5 μM and 10 μM. A control condition (CTL) is also performed in parallel using the previously described protocol without treatment with the molecules DX101, DX103, DX111, DX123, DX125, DX127 or DX129.
(§4) For the second method, the percentage of viability is determined by assaying the activity of the enzyme LDH (lactate dehydrogenase) in cell supernatants using the non radioactive cytotoxicity assay kit (Promega). LDH is an enzyme released in the supernatant of dead cells. The higher the LDH activity in the supernatant, the greater the cell death. In this enzyme assay, the LDH released converts a violet tetrazolium salt to a red colored formazan, absorbing at 490 nm. The intensity of the red color is proportional to the number of dead cells. After 48 h of treatment, the supernatants are transferred to a new 96-well plate and incubated for 30 minutes in the presence of substrate mix at room temperature. The reaction is stopped with stop solution reagent and the absorbance is determined at 490 nm. The percentage of cell death is determined here using a 100% maximum LDH activity control (made from untreated cells incubated in the presence of lysis solution for 45 minutes at 37° C. just prior to addition of the substrate mix), and the cell viability in each well is then deduced from this percentage. The IC50 is then determined as explained in the preceding paragraph.

[3] = system: murine 4T1 mammary tumor cells; assay: Cell viability of 4T1 cells, CellTox Green Cytotoxicity Assay; format: cell-based; details: Mus musculus, 4T1, Green Cytotoxicity Assay, 48 h
Method: as §1, §2, §3
For the third method, the percentage viability is determined using the CellTox Green Cytotoxicity Assay kit (Promega). This assay measures cell death via a change in membrane integrity. […] Consequently, the higher the fluorescence in the wells, the greater the cell death. […] The percentage of cell death is determined using the 100% cell death control (made from untreated cells incubated in the presence of the lysis solution for 30 minutes at 37° C. prior to the addition of Celltox green reagent), and the cell viability in each well is then deduced from this percentage. The IC50 is then determined as explained previously.

[4] = system: BT-474 human mammary tumor cells; assay: Cell viability of BT-474 cells, LDH; format: cell-based; details: BT-474, LDH, 48 h; for Mean LogIC50 (±SEM): log of IC50 in μM; for IC50: Homo sapiens
Method: as §4
(§5) Cell viability tests were also performed on BT-474 human mammary tumor cells (characterized as triple positive HER2+, ER+, PR+). The BT-474 cells were in a cell culture medium identical to the previous example and seeded in 24-well plates at 70 000 cells per well for cell viability determination using trypan blue, or in 96-well plates at 13 000 cells per well for cell viability determination using the MTT or LDH assay. After 96 hours (h) of culture under normal conditions, i.e. in an incubator at 37° C. with […], BT-474 cells were treated for 48 h with DX101, DX103, DX105, DX111, DX123 and DX127 at 100 nM, 1 μM, 2.5 μM and 10 μM. A control is also performed using the protocol described previously without treatment with DX101, DX103, DX105, DX111, DX123 and DX127.
(§6) After a 10-minute trypsin digestion at 37° C., the cell survival was also quantified by means of a trypan blue test with automatic counting using the Biorad TC20 machine (TC20™ Automated Cell Counter). The trypan blue test is based on the integrity of cell membranes, which is disrupted in the dead cells. Trypan blue stains dead cells blue. The Biorad TC20 cell counter counts the proportion of blue and non-blue cells, and reports the percentage of cells. The percentage of viability is then determined in each well relative to the untreated cells and the IC50 is determined as explained in the preceding example. Also, the percentage viability of the BT-474 cells was determined using the MTT and LDH assay, performed as described in the preceding example.

[5] = system: BT-474 human mammary tumor cells; assay: Cell viability of BT-474 cells, trypan blue; format: cell-based; details: BT-474, Trypan Blue, 48 h; for Mean LogIC50 (±SEM): log of IC50 in μM; for IC50: Homo sapiens
Method: as §5, §6

[6] = Pharmacokinetics and bioavailability, oral and I.V., in rats (Example 28); format: in vivo; details: rat
Method: Plasma sampling at 0 (without injection), 15, 30 min, 1 h, 4 h, 8 h, 24 h, 48 h, 72 h

[7] = log of IC50 in μM, read-out: Mean LogIC50 (±SEM) (converted)

CC(C)CCC[C@@H](C)[C@H]1CC[C@H]2[C@@H]3C[C@@H](NCCc4c[nH]cn4)[C@@]4(O)C[C@@H](O)CC[C@]4(C)[C@H]3CC[C@]12C [DX101, 5α-hydroxy-6β-[2-(1H-imidazol-4-yl)ethylamino]cholestan-3β-ol, reference compound]
Area under the curve ([1]; oral, plasma, Example 24): 3019
Max concentration ([1]; oral, plasma, Example 24): 150 nM
Area under the curve ([1]; oral, plasma, Examples 21-23): 143297
Max concentration ([1]; oral, plasma, Examples 21-23): 140 nM
IC50 [2, 7]: 3.24 µM
IC50 ([2]; read-out: IC50): 3.24 µM
IC50 [3, 7]: 2.69 µM
IC50 ([3]; read-out: IC50): 2.68 µM
Mean LogIC50 (±SEM) [4]: 1.03 ± 0.06
IC50 [4]: 10.6 µM
Mean LogIC50 (±SEM) [5]: 0.61 ± 0.20
IC50 [5]: 4.03 µM
clearance ([6]; plasma, iv, 5 mg/kg, read-out: Clearance): 11 mL/min/kg
half-life ([6]; plasma, iv, 5 mg/kg, read-out: T½ 2nd phase (converted)): 1680 min
bioavailability ([6]; plasma, po 50 mg/kg versus iv 5 mg/kg, read-out: F %): 3%
half-life ([6]; plasma, po, 50 mg/kg, read-out: T½ 2nd phase (converted)): 2340 min
ASC(t0-tlast) ([6]; iv, 5 mg/kg, plasma): 6205
Cmax ([6]; iv, 5 mg/kg, plasma, read-out: Cmax): 3310 ng/mL
Vd ([6]; plasma, iv, 5 mg/kg, iv, 5 mg/kg, read-out: Vd): 29 L/kg
Vd ([6]; plasma, iv, 5 mg/kg, iv, 5 mg/kg, read-out: Vss): 19 L/kg
clearance ([6]; po, 50 mg/kg): 412 mL/min/kg
ASC(t0-tlast) ([6]; po, 50 mg/kg, plasma): 1546
Cmax ([6]; po, 50 mg/kg, plasma, read-out: Cmax): 77 ng/mL
Tmax ([6]; po, 50 mg/kg, plasma, read-out: Tmax): 4 h

CC(C)CCC[C@@H](C)[C@H]1CC[C@H]2[C@@H]3C[C@@H](NCCc4c[nH]cn4)[C@@]4(O)C[C@@H](F)CC[C@]4(C)[C@H]3CC[C@]12C [DX111, 3β-fluoro-5α-hydroxy-6β-[2-(1H-imidazol-4-yl)ethylamino]cholestane]
Area under the curve ([1]; in vivo, po): 368921
Max concentration ([1]; in vivo, po): 515 nM
Time for Cmax ([1]; in vivo, po): 240 min
bioavailability / extent of absorption compared with DX101 ([1]; in vivo, po): three-fold higher absorption
maximum concentration compared with DX101 ([1]; in vivo, po): higher maximum concentration
speed of absorption compared with DX101 ([1]; in vivo, po): faster absorption
IC50 [2, 7]: 1.86 µM
IC50 ([2]; read-out: IC50): 1.88 µM
IC50 [3, 7]: 2.19 µM
IC50 ([3]; read-out: IC50): 2.18 µM
Mean LogIC50 (±SEM) [4]: 0.89 ± 0.04
IC50 [4]: 7.82 µM
Mean LogIC50 (±SEM) [5]: 0.78 ± 0.15
IC50 [5]: 5.96 µM
bioavailability ([6]; in vivo): 10%
ASC(t0-tlast) ([6]; in vivo, iv, 5 mg/kg): 3516
Cmax ([6]; in vivo, iv, 5 mg/kg): 2970 ng/mL
clearance ([6]; in vivo, iv, 5 mg/kg): 25 mL/min/kg
half-life ([6]; in vivo, iv, 5 mg/kg): 1260 min
Vd ([6]; in vivo, iv, 5 mg/kg, Vd): 43 L/kg
Vd ([6]; in vivo, iv, 5 mg/kg, Vss): 12 L/kg
bioavailability compared with DX101 ([6]; in vivo, po): three-fold higher bioavailability
clearance compared with DX101 ([6]; in vivo, po): halved
maximum plasma concentration compared with DX101 ([6]; in vivo, po): four times higher
ASC(t0-tlast) ([6]; in vivo, po, 50 mg/kg): 3228
Cmax ([6]; in vivo, po, 50 mg/kg): 309 ng/mL
Tmax ([6]; in vivo, po, 50 mg/kg): 4 h
clearance ([6]; in vivo, po, 50 mg/kg): 240 mL/min/kg
half-life ([6]; in vivo, po, 50 mg/kg): 1440 min
